Data on 29 compounds can be found in US20140206682A1, “COMPOUNDS AND COMPOSITIONS AS PDGFR KINASE INHIBITORS” (NOVARTIS PHARMACEUTICALS UK LIMITED, priority 2011, published 2014).

The subject of one assay is PDGFR. The experiment in a line: Rat A10 cell proliferation assay. Format: cell-based. Particulars: Table 1; Rat A10 cells, recombinant rat PDGF-BB, CellTiter-Glo after 68 hours. On the procedure: Compounds of Formula (I) provided herein were assayed to measure their capacity to inhibit c-kit and PDGFR kinases using the appropriate assay described below: c-Kit inhibition was evaluated using the Mo7e cell proliferation assay, and PDGFR inhibition was evaluated using the Rat A10 cell proliferation assay and the Human TG/HA-VSMC cell proliferation assay.
Rat A10 cells (ATCC) were resuspended in DMEM supplemented with 1% FBS and 10 ng/mL recombinant rat PDGF-BB at 20,000 cells/mL. The cells were aliquoted into 384 well plates at 50 μL/well and incubated for 4 hours at 37° C. 0.5 μL of test compound 3-fold serially diluted in DMSO was added to each well. The plates were returned to the incubator for a further 68 hours. 25 μL of CellTiter-Glo (Promega) was added to each well and the plates were incubated on the bench for 15 minutes. Luminescence was then read using a CLIPR CCD camera (Molecular Devices).
Usually IC50 stands for the concentration needed to halve the response being measured. Take `O=C(N[C@@H]1CCCCC[C@H]1O)c1ccc(F)c(NC(=O)c2cnc3ccccn23)c1` [F12, N-(2-fluoro-5-{[(1R,2R)-2-hydroxycycloheptyl]carbamoyl}phenyl)imidazo[1,2-a]pyridine-3-carboxamide]: the IC50 was 79 nM.

For the compound `CN(C)CCCOc1ccc(-c2ccn3c(C(=O)Nc4cc(C(=O)NC5Cc6ccccc6C5O)ccc4F)cnc3c2)cn1` (centres unmarked) [F13, 7-{6-[3-(dimethylamino)propoxy]pyridin-3-yl}-N-{2-fluoro-5-[(1-hydroxy-2,3-dihydro-1H-inden-2-yl)carbamoyl]phenyl}imidazo[1,2-a]pyridine-3-carboxamide], the IC50 was found to be 56 nM. On to `Cn1nccc1-c1ccn2c(C(=O)Nc3cc(C(=O)NC4Cc5ccccc5C4O)ccc3F)cnc2c1` (centres unmarked) [F14, N-{2-fluoro-5-[(1-hydroxy-2,3-dihydro-1H-inden-2-yl)carbamoyl]phenyl}-7-(1-methyl-1H-pyrazol-5-yl)imidazo[1,2-a]pyridine-3-carboxamide], for which the 50% inhibitory concentration (IC50) worked out at 32 nM. As for `Cn1nccc1-c1ccn2c(C(=O)Nc3cc(C(=O)N[C@@H]4Cc5ccccc5[C@@H]4O)ccc3F)cnc2c1` [F15, N-(2-fluoro-5-{[(1S,2R)-1-hydroxy-2,3-dihydro-1H-inden-2-yl]carbamoyl}phenyl)-7-(1-methyl-1H-pyrazol-5-yl)imidazo[1,2-a]pyridine-3-carboxamide], the IC50 was 44 nM. Still for that read-out and setting: as for `Cn1nccc1-c1ccn2c(C(=O)Nc3cc(C(=O)N[C@H]4Cc5ccccc5[C@H]4O)ccc3F)cnc2c1` [F16, N-(2-fluoro-5-{[(1R,2S)-1-hydroxy-2,3-dihydro-1H-inden-2-yl]carbamoyl}phenyl)-7-(1-methyl-1H-pyrazol-5-yl)imidazo[1,2-a]pyridine-3-carboxamide], the figure is 57 nM; as for `Cc1ccc2ncc(C(=O)Nc3cc(C(=O)N[C@@H]4c5ccccc5C[C@@H]4O)ccc3F)n2c1` [F17, N-(2-fluoro-5-{[(1R,2S)-2-hydroxy-2,3-dihydro-1H-inden-1-yl]carbamoyl}phenyl)-6-methylimidazo[1,2-a]pyridine-3-carboxamide], 60 nM. As for `O=C(N[C@@H]1c2ccccc2C[C@@H]1O)c1ccc(F)c(NC(=O)c2cnc3cc(F)ccn23)c1` [F18, 7-fluoro-N-(2-fluoro-5-{[(1R,2S)-2-hydroxy-2,3-dihydro-1H-inden-1-yl]carbamoyl}phenyl)imidazo[1,2-a]pyridine-3-carboxamide], the 50% inhibitory concentration (IC50) worked out at 86 nM. Take `COc1ccc2ncc(C(=O)Nc3cc(C(=O)N[C@@H]4c5ccccc5C[C@@H]4O)ccc3F)n2c1` [F19, N-(2-fluoro-5-{[(1R,2S)-2-hydroxy-2,3-dihydro-1H-inden-1-yl]carbamoyl}phenyl)-6-methoxyimidazo[1,2-a]pyridine-3-carboxamide]: the IC50 stood at 82 nM. Still for that read-out and setting: the same measure for `Cc1ccc(C(=O)N[C@@H]2c3ccccc3C[C@@H]2O)cc1NC(=O)c1cnc2ccccn12` [F20, N-(5-{[(1R,2S)-2-hydroxy-2,3-dihydro-1H-inden-1-yl]carbamoyl}-2-methylphenyl)imidazo[1,2-a]pyridine-3-carboxamide]: 29 nM; for `Cc1ccc(C(=O)N[C@H]2c3ccccc3C[C@H]2O)cc1NC(=O)c1cnc2ccccn12` [F21, N-(5-{[(1S,2R)-2-hydroxy-2,3-dihydro-1H-inden-1-yl]carbamoyl}-2-methylphenyl)imidazo[1,2-a]pyridine-3-carboxamide]: 95 nM.

As to `Cc1ccc(C(=O)N[C@@H]2c3ccccc3C[C@H]2O)cc1NC(=O)c1cnc2ccccn12` [F22, N-(5-{[(1R,2R)-2-hydroxy-2,3-dihydro-1H-inden-1-yl]carbamoyl}-2-methylphenyl)imidazo[1,2-a]pyridine-3-carboxamide], the IC50 is 28 nM. Regarding `Cc1ccc(C(=O)N[C@H]2c3ccccc3C[C@@H]2O)cc1NC(=O)c1cnc2ccccn12` [F23, N-(5-{[(1S,2S)-2-hydroxy-2,3-dihydro-1H-inden-1-yl]carbamoyl}-2-methylphenyl)imidazo[1,2-a]pyridine-3-carboxamide], the IC50 stood at 21 nM. Consider `O=C(N[C@@H]1CCCC[C@H]1CO)c1ccc(F)c(NC(=O)c2cnc3ccccn23)c1` [F24, N-(2-fluoro-5-{[(1R,2R)-2-(hydroxymethyl)cyclohexyl]carbamoyl}phenyl)imidazo[1,2-a]pyridine-3-carboxamide], for which the 50% inhibitory concentration (IC50) was found to be 94 nM.

Turning to `[2H]c1c([2H])c([2H])n2c(C(=O)Nc3cc(C(=O)N[C@@H]4c5ccccc5C[C@@H]4O)ccc3F)cnc2c1[2H]` [F25, N-(2-fluoro-5-{[(1R,2S)-2-hydroxy-2,3-dihydro-1H-inden-1-yl]carbamoyl}phenyl)-5,6,7,8-tetrahydrogenioimidazo[1,2-a]pyridine-3-carboxamide], the IC50 was 65 nM.

In the case of `Cc1ccn2c(C(=O)Nc3cc(C(=O)N[C@@H]4c5ccccc5C[C@@H]4O)ccc3F)cnc2c1` [F26, N-(2-fluoro-5-{[(1R,2S)-2-hydroxy-2,3-dihydro-1H-inden-1-yl]carbamoyl}phenyl)-7-methylimidazo[1,2-a]pyridine-3-carboxamide], the 50% inhibitory concentration (IC50) worked out at 49 nM. The same measure, in the same setting: the same measure for `O=C(N[C@@H]1c2ccccc2C[C@@H]1O)c1ccc(F)c(NC(=O)c2cnc3ccc(F)cn23)c1` [F27, 6-fluoro-N-(2-fluoro-5-{[(1R,2S)-2-hydroxy-2,3-dihydro-1H-inden-1-yl]carbamoyl}phenyl)imidazo[1,2-a]pyridine-3-carboxamide]: 168 nM; for `Cc1ccc2ncc(C(=O)Nc3cc(C(=O)N[C@@H]4c5ccc(F)cc5C[C@@H]4O)ccc3F)n2c1` [F28, N-(2-fluoro-5-{[(1R,2S)-5-fluoro-2-hydroxy-2,3-dihydro-1H-inden-1-yl]carbamoyl}phenyl)-6-methylimidazo[1,2-a]pyridine-3-carboxamide]: 129 nM; for `Cc1ccc2ncc(C(=O)Nc3cc(C(=O)N[C@@H]4c5cc(F)ccc5C[C@@H]4O)ccc3F)n2c1` [F29, N-(2-fluoro-5-{[(1R,2S)-6-fluoro-2-hydroxy-2,3-dihydro-1H-inden-1-yl]carbamoyl}phenyl)-6-methylimidazo[1,2-a]pyridine-3-carboxamide]: 105 nM. For `Cc1ccc(C(=O)NCc2ccccc2N2CCCC(O)C2)cc1NC(=O)c1cnc2ccccn12` (centres unmarked) [F30, N-[5-({[2-(3-hydroxypiperidin-1-yl)phenyl]methyl}carbamoyl)-2-methylphenyl]imidazo[1,2-a]pyridine-3-carboxamide], the IC50 amounted to 27 nM. For `Cc1ccc(C(=O)NCc2ccccc2N2CCC(O)C2)cc1NC(=O)c1cnc2ccccn12` (centres unmarked) [F31, N-[5-({[2-(3-hydroxypyrrolidin-1-yl)phenyl]methyl}carbamoyl)-2-methylphenyl]imidazo[1,2-a]pyridine-3-carboxamide], the IC50 was determined as 42 nM.

Staying with this assay, now noted: Table 2; Rat A10 cells, recombinant rat PDGF-BB, CellTiter-Glo after 68 hours.
For the compound `COc1ccc2ncc(C(=O)Nc3cc(C(=O)N[C@H]4c5ccccc5C[C@H]4O)ccc3F)n2c1` [F35, N-(2-fluoro-5-{[(1S,2R)-2-hydroxy-2,3-dihydro-1H-inden-1-yl]carbamoyl}phenyl)-6-methoxyimidazo[1,2-a]pyridine-3-carboxamide], the IC50 came to 228 nM. Regarding `Cc1ccc2ncc(C(=O)Nc3cc(C(=O)N[C@H]4c5ccccc5C[C@H]4O)ccc3F)n2c1` [F36, N-(2-fluoro-5-{[(1S,2R)-2-hydroxy-2,3-dihydro-1H-inden-1-yl]carbamoyl}phenyl)-6-methylimidazo[1,2-a]pyridine-3-carboxamide], the half-maximal inhibitory concentration (IC50) is 234 nM.

As for `O=C(N[C@@H]1Cc2ccccc2[C@H]1O)c1ccc(F)c(NC(=O)c2cnc3ccccn23)c1` [F37, N-(2-fluoro-5-{[(1R,2R)-1-hydroxy-2,3-dihydro-1H-inden-2-yl]carbamoyl}phenyl)imidazo[1,2-a]pyridine-3-carboxamide], the IC50 was 242 nM. The same measure, in the same setting: the same measure for `O=C(N[C@@H]1Cc2ccccc2[C@@H]1O)c1ccc(F)c(NC(=O)c2cnc3ccccn23)c1` [F38, N-(2-fluoro-5-{[(1S,2R)-1-hydroxy-2,3-dihydro-1H-inden-2-yl]carbamoyl}phenyl)imidazo[1,2-a]pyridine-3-carboxamide]: 248 nM; for `CN(C)CCCOc1ccc(-c2ccn3c(C(=O)Nc4cc(C(=O)N[C@@H]5Cc6ccccc6[C@@H]5O)ccc4F)cnc3c2)cn1` [F39, 7-{6-[3-(dimethylamino)propoxy]pyridin-3-yl}-N-(2-fluoro-5-{[(1S,2R)-1-hydroxy-2,3-dihydro-1H-inden-2-yl]carbamoyl}phenyl)imidazo[1,2-a]pyridine-3-carboxamide]: 252 nM. Take `O=C(N[C@H](CO)CC1CCCCC1)c1cccc(NC(=O)c2cnc3ccccn23)c1` [F48, N-(3-{[(2S)-1-cyclohexyl-3-hydroxypropan-2-yl]carbamoyl}phenyl)imidazo[1,2-a]pyridine-3-carboxamide]: the IC50 came to 363 nM. As to `CCC[C@@H](CO)NC(=O)c1ccc(F)c(NC(=O)c2cnc3ccccn23)c1` [F49, N-(2-fluoro-5-{[(2S)-1-hydroxypentan-2-yl]carbamoyl}phenyl)imidazo[1,2-a]pyridine-3-carboxamide], the 50% inhibitory concentration (IC50) worked out at 373 nM. Same read-out and setting: the same measure for `O=C(N[C@H]1CCCC[C@H]1O)c1ccc(F)c(NC(=O)c2cnc3ccccn23)c1` [F50, N-(2-fluoro-5-{[(1S,2R)-2-hydroxycyclohexyl]carbamoyl}phenyl)imidazo[1,2-a]pyridine-3-carboxamide]: 373 nM. Regarding `O=C(N[C@H]1CCCC[C@@H]1CO)c1ccc(F)c(NC(=O)c2cnc3ccccn23)c1` [F51, N-(2-fluoro-5-{[(1S,2S)-2-(hydroxymethyl)cyclohexyl]carbamoyl}phenyl)imidazo[1,2-a]pyridine-3-carboxamide], the IC50 was determined as 387 nM.
